{"source": "patent US6977180B2", "about": "“Biosensor” (Duke University, priority 2001, dated 2005)", "key": {"[1]": {"experiment": "solution ligand binding by intrinsic tryptophan fluorescence of the conjugates, glucose", "conditions": "read-out: fKd(glucose), dissociation constant of the protein free in solution", "protocol": "FIGS. 4A–4D. Ligand-mediated electrochemical responses of four electroactive biomolecular assemblies. Inserts show the current responses observed at different ligand concentrations, measured by scanning the potential at a constant frequency. FIG. 4A. G174C-MBP (1 kHz; ^eKd(maltose)=4 μM; ^fKd(maltose)=1 μM), FIG. 4B. L255C-GBP (0.1 kHz; ^eKd(glucose)=2.0 μM; ^fKd(glucose)=0.4 μM), FIG. 4C. G174C-eZBP, a redesigned variant of MBP that binds zinc (1 kHz; ^eKd (zinc)=10 μM; ^fKd(zinc)=3 μM), FIG. 4D. E163C-QBP (0.16 kHz; ^eKd(glutamine)=1.0 μM; ^fKd(glutamine)=0.2 μM. Two binding constants are reported: ^eKd is dissociation constant of the assembly, determined electrochemically; ^fKd is the dissocation constant of the protein free in solution, determined by measuring changes in the intrinsic tryptophan fluorescence of the conjugates. (For every protein presented, the ligand-binding affinities determined electrochemically using a disk gold electrode are 2–5 fold weaker than those in solution. However, if a gold microelectrode prepared by flame annealing a gold wire (Creager et al, Anal. Chem. 70:4257 (1998)) is used instead of a gold disk electrode, the electrochemically determined affinities are similar to the solution affinities.\nProtein purification and labeling. […]"}, "[2]": {"experiment": "electrochemical (ac voltammetry) ligand binding of protein-modified gold electrode, glucose", "conditions": "gold disk electrode, 0.1 kHz, read-out: eKd(glucose), dissociation constant of the assembly, determined electrochemically", "protocol": "FIGS. 4A–4D. Ligand-mediated electrochemical responses of four electroactive biomolecular assemblies. Inserts show the current responses observed at different ligand concentrations, measured by scanning the potential at a constant frequency. FIG. 4A. G174C-MBP (1 kHz; ^eKd(maltose)=4 μM; ^fKd(maltose)=1 μM), FIG. 4B. L255C-GBP (0.1 kHz; ^eKd(glucose)=2.0 μM; ^fKd(glucose)=0.4 μM), FIG. 4C. G174C-eZBP, a redesigned variant of MBP that binds zinc (1 kHz; ^eKd (zinc)=10 μM; ^fKd(zinc)=3 μM), FIG. 4D. […]\nElectrochemistry. […] Ac current baselines were calculated by linear extrapolation between equidistant potentials from the observed midpoint reduction potential (˜220 mV), as reported previously (Creager et al, Anal. Chem. 70:4257–4263 (1998)). […]"}}}
{"substance": "L255C-GBP: glucose-binding protein mutant L255C carrying the Ru(II) redox reporter", "values": [{"measurement": "Kd", "setting": "[1]", "result": 400, "unit": "nM"}, {"measurement": "Kd", "setting": "[2]", "result": 2000, "unit": "nM"}]}
